Measurements: PubChem BioAssay (NCI)
“And” between values parts separate entries of the source, which are not always exact repeats. Equal values may be shown once.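 Test compounds were applied to cells in 96-well plates for 48 hours at 5 doses. The concentration for 50% growth inhibition is given as GI50. TGI marks complete inhibition of growth.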

Columns and labels:
Assay in all cases: DTP human tumour cell line panel, 48 h
[1] = system: SK-MEL-28 melanoma
[2] = system: M14 melanoma
[3] = system: U251 CNS
[4] = system: SNB-19 CNS
[5] = system: 786-0 renal
[6] = system: BT-549 breast
[7] = system: OVCAR-8 ovarian
[8] = system: CCRF-CEM leukemia
[9] = system: SK-MEL-2 melanoma
[10] = system: HOP-92 NSCLC

Row | Structure (SMILES) | TGI [1] | TGI [2] | TGI [3] | TGI [4] | TGI [5] | TGI [6] | TGI [7] | TGI [8] | TGI [9] | GI50 [1] | GI50 [3] | GI50 [4] | GI50 [5] | GI50 [8] | GI50 [6] | GI50 [10] | TGI [10] | GI50 [9] | GI50 [7] | GI50 [2]
1 | CC1CC(O)C(=O)C(O[C@@H]2C[C@@H]3CC[C@@H]4[C@H](CC[C@]5(C)C(C6=CC(=O)OC6)CC[C@]45O)[C@@]3(C=O)C[C@H]2O)O1 (some centres not stated) | 0.329 µM | 0.178 µM | < 0.0486 µM | 0.0316 µM | 0.0341 µM | 0.126 µM | 0.163 µM |  |  |  |  |  |  |  |  |  |  |  |  | 
2 | COc1ccc(C(=O)c2cc(OC)c(OC)c(OC)c2)cc1OC | > 100 µM | > 100 µM | > 100 µM |  | > 100 µM | > 100 µM | > 100 µM | > 100 µM | > 100 µM |  |  |  |  |  |  |  |  |  |  | 
3 | Cc1ccc(OCCOCCOCCOCCOc2ccc(C)n(O)c2=S)c(=S)n1O | > 100 µM |  | > 100 µM | > 100 µM | > 100 µM | > 100 µM | > 100 µM | > 100 µM | > 100 µM | 0.356 µM | 0.0632 µM | 0.221 µM | 0.335 µM | < 0.01 µM | 0.52 µM | 4.78 µM | > 90.8 µM | 4.86 µM | < 0.0137 µM | 
4 | COc1ccc(-c2nc(-c3cc(OC)cc(OC)c3)[nH]c2-c2ccc(OC)cc2)cc1 | > 100 µM | > 100 µM |  | > 100 µM | > 100 µM | > 100 µM | > 100 µM | > 100 µM |  | > 100 µM |  | > 100 µM | > 100 µM | 3.93 µM | 8.56 µM |  |  |  | 9.77 µM | 8.37 µM
5 | COc1cccc(/C=N/[N-]C(=O)c2ccncc2)c1[O-].COc1cccc(/C=N/[N-]C(=O)c2ccncc2)c1[O-].[O]=[U](=[O])([OH2+])[OH2+] | > 56.7 µM | > 61.4 µM | 40.8 µM | > 100 µM | 48.6 µM |  | > 100 µM | > 30.7 µM | > 74 µM | 10 µM | 4.34 µM | 9.44 µM | 4.37 µM | 2.06 µM |  | 14.3 µM | 54.5 µM | 19.8 µM | 5.11 µM | 5.47 µM
6 | CCC1CN2CCc3cc(OC)c(OC)cc3C2CC1CC1c2cc(OC)c(OC)cc2CCN1C(=O)C1CCCN1 (configuration not stated) | 50.9 µM | 27.6 µM | 69.4 µM | > 100 µM | 54.8 µM |  | > 100 µM | 64.8 µM | 68.7 µM |  |  |  |  |  |  |  | > 100 µM |  |  | 
7 | O=C(Nc1cc(Cl)ccc1O)c1ccc(Nc2ccnc(C(F)(F)F)c2)cc1 | > 100 µM | 54.1 µM | > 100 µM | 7.78 µM | > 100 µM | 6.88 µM | > 100 µM | 5.7 µM |  | 4.6 µM | 3.47 µM | 2.15 µM | 3.61 µM | 0.807 µM | 2.21 µM | 2.24 µM | 6.12 µM |  | 4.54 µM | 3.56 µM
8 | Cn1cc(-c2csc(-c3cn(CCCCN4CCCCC4)c4ccccc34)n2)c2cccnc21 | 3.12 µM |  |  | 3.07 µM | 3.05 µM | 3.37 µM |  |  |  | 1.7 µM |  | 1.64 µM | 1.64 µM |  | 1.75 µM | 1.32 µM | 2.7 µM |  |  | 
9 | Cc1cc(N/N=C/c2ccccn2)nc2ccccc12 | 16.8 µM | 5.62 µM | 10.5 µM | 26.3 µM | 12.4 µM | 20.3 µM | 16.6 µM | 1.77 µM | 19.6 µM | 0.895 µM | 0.378 µM | 0.535 µM | 0.384 µM | 0.25 µM | 0.85 µM |  |  | 4.89 µM | 0.381 µM | 0.413 µM
10 | CC(C)(C)c1ccc2c(c1)S(=O)(=O)Nc1ccc(Cl)cc1NS(=O)(=O)c1cc(C(C)(C)C)ccc1OCCOCCOCCO2 | > 100 µM | > 100 µM | > 100 µM | > 100 µM | > 100 µM |  | > 100 µM | > 100 µM | > 100 µM |  |  |  |  |  |  |  | 72.7 µM |  |  | 
11 | ClCCN(CCCl)c1ccc(CNc2ccccc2)cc1 | > 100 µM | > 100 µM | > 100 µM | > 100 µM | 36 µM | 43 µM | > 100 µM | > 100 µM | 51 µM | 36.8 µM | 4.43 µM | 19 µM | 5.11 µM | 4.12 µM | 7.2 µM |  |  | 20.9 µM | 6.34 µM | 8.27 µM
12 | CCCC/C(=C\C1=C(C)C(=O)C(OC)=C(OC)C1=O)C(=O)O | > 100 µM | > 100 µM | > 100 µM | > 100 µM | > 100 µM | > 100 µM | > 100 µM |  | > 100 µM | > 100 µM | > 100 µM | > 100 µM | > 100 µM |  | > 100 µM | 23.5 µM | 86.7 µM | > 100 µM | > 100 µM | > 100 µM
13 | CCCCCCCCCCNC(=O)CI | 3.91 µM | 3.2 µM | 3.14 µM | 23.9 µM | 3.37 µM | 3.35 µM | 4.52 µM | 0.482 µM | 4.02 µM | 1.95 µM | 1.58 µM | 11.2 µM | 1.8 µM | 0.194 µM | 1.73 µM |  |  | 1.94 µM | 1.55 µM | 1.59 µM
14 | CCOP(=O)(OCC)C(C(=O)OC)C(=O)C(=O)Nc1ccc(Cl)cc1Cl (configuration not stated) | > 100 µM | > 100 µM | > 100 µM | > 100 µM | > 100 µM |  | > 100 µM | > 100 µM | > 100 µM |  |  |  |  |  |  |  | > 100 µM |  |  | 
15 | NC(=O)C(=O)CC(=O)c1ccccc1NC1=CC(=O)C(=O)c2ccccc21 | > 100 µM | > 100 µM | > 100 µM | > 100 µM | > 100 µM |  | > 100 µM | > 100 µM | > 100 µM |  |  |  |  |  |  |  | > 81.2 µM |  |  | 
16 | CC1(C)CN=C(NN=C(/C=C/c2ccc(C(F)(F)F)cc2)/C=C/c2ccc(C(F)(F)F)cc2)NC1 | 3.25 µM | 3.5 µM | 2.47 µM | 3.18 µM | 3.42 µM | 3.46 µM | 3.2 µM | 4.17 µM |  | 1.64 µM | 1.2 µM | 1.5 µM | 1.78 µM | 1.12 µM | 1.74 µM | 1.1 µM | 2.54 µM |  | 1.67 µM | 1.78 µM
17 | CC(C)=C1CCC(CN(C)C)C1=O (configuration not stated) | 34 µM | 28.4 µM | > 100 µM | > 100 µM | 25.9 µM |  | 49.4 µM | 27.7 µM | 78.4 µM |  |  |  |  |  |  |  | 40.6 µM |  |  | 
18 | O=C(Cc1nc2c3c(ccc2[nH]c1=O)C(=O)c1ccccc1C3=O)C(=O)Nc1ccccc1[N+](=O)[O-] | 30.3 µM | 34 µM | 32 µM | 32.9 µM | 34.4 µM |  | 39.6 µM | 11.6 µM | 45.4 µM |  |  |  |  |  |  |  | 38.5 µM |  |  | 
19 | CCOCN1COCN(C)C1=O | > 100 µM | > 100 µM | > 100 µM | > 100 µM | > 100 µM |  | > 100 µM | > 100 µM | > 100 µM |  |  |  |  |  |  |  | > 100 µM |  |  | 
20 | COc1ccc(-c2ccc3c(N4CCOC[C@@H]4C)nc(N4CCOC[C@@H]4C)nc3n2)cc1CO | 0.181 µM | 20.5 µM | > 54.1 µM | > 100 µM | > 45.1 µM |  | 3.39 µM | > 100 µM |  | 0.00476 µM and 0.0135 µM | 0.00762 µM and 0.0341 µM | 0.00693 µM and 0.0491 µM | 0.00494 µM and 0.0416 µM | 0.0102 µM and 0.059 µM | 0.00348 µM and 0.0162 µM | 0.00134 µM and 0.0105 µM |  |  | 0.00759 µM and 0.0351 µM | 0.00517 µM and 0.0262 µM
21 | NCCNCC1CCNCC1 | > 100 µM | > 100 µM | > 100 µM | > 100 µM | > 100 µM | > 100 µM | > 100 µM |  | > 100 µM |  |  |  |  |  |  |  | > 100 µM |  |  | 
22 | Cc1ccccc1C1=[N+]([O-])c2ccc(Cl)cc2C1=O | 35.9 µM | 29.9 µM | 32 µM | 64.4 µM | 32.9 µM |  | 19.3 µM | 12.5 µM | 46 µM |  |  |  |  |  |  |  | 28 µM |  |  | 
23 | N#CC(=Nc1ccccc1N(C(=O)c1ccccc1)C(=O)c1ccccc1)c1ccccc1 | > 100 µM | > 100 µM | > 100 µM | > 54.9 µM | > 100 µM |  | > 100 µM | > 31.2 µM | > 100 µM |  |  |  |  |  |  |  | > 93.3 µM |  |  | 
24 | CN(C)CCNCCN | > 100 µM | > 100 µM | > 100 µM | > 100 µM | > 100 µM | > 100 µM | > 100 µM |  | > 100 µM |  |  |  |  |  |  |  | > 100 µM |  |  | 
25 | c1coc(-c2c3ccc(=[N+]4CCCCC4)cc-3oc3cc(N4CCCCC4)ccc23)c1 | 0.854 µM |  |  | 1.56 µM | 0.424 µM | 0.865 µM | 1.1 µM | 1.11 µM | 1.09 µM | 0.114 µM |  | 0.195 µM | 0.0455 µM | 0.0306 µM | 0.191 µM | 0.0502 µM | 0.19 µM | 0.119 µM | 0.0449 µM | 
26 | Cc1cc2c(c(C(N)=O)c1C)-c1ccccc1C2=O | > 100 µM | > 100 µM | > 100 µM | > 100 µM | > 100 µM |  | > 100 µM | > 100 µM | > 100 µM |  |  |  |  |  |  |  | > 100 µM |  |  | 
27 | COC(c1ccc(C(C)(C)C)cc1)(c1ccc(C(C)(C)C)cc1)c1ccc(C(C)(C)C)cc1 | > 100 µM | > 100 µM | > 100 µM | > 100 µM | > 100 µM | > 100 µM | > 100 µM | > 100 µM | > 100 µM |  |  |  |  |  |  |  |  |  |  | 
